Here are results for 18 compounds from article PMC6152672, “Cholinesterase Inhibitory Activities of Adamantyl-Based Derivatives and Their Molecular Docking Studies” (Molecules : A Journal of Synthetic Chemistry and Natural …, 2017).

Molecules are shown by their SMILES. Read-outs that look alike come from different tables or passages of the source. Where only a bound is given, the exact number is not on record here.

A word on the IC50: it is the point on the concentration scale where inhibition reaches its midpoint.

The target in assay [1] is T1, equine serum butyrylcholinesterase (BChE, EC 3.1.1.8) (Equus caballus, UniProt P81908).
T1 construct: purchased Sigma-Aldrich (St. Louis, MO, USA); host or cells: equine serum
T1 sequence (P81908 whole entry): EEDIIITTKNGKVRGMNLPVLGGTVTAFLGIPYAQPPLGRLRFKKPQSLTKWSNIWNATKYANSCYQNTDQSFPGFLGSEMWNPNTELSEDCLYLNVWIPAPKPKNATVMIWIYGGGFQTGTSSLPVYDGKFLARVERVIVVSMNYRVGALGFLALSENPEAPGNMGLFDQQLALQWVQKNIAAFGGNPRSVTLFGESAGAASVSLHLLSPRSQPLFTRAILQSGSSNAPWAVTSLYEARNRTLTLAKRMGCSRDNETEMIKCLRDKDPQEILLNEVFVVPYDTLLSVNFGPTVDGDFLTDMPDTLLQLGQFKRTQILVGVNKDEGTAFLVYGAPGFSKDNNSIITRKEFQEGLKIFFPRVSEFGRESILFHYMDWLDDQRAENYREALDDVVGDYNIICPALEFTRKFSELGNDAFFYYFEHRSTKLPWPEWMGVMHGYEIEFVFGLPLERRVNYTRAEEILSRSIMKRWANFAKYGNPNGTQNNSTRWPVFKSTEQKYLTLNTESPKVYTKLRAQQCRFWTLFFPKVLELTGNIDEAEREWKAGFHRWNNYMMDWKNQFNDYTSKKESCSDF
The assay is described as follows: biochemical. The note with it: for BChE inhibition effect (in words): 2a, 2r: up to a concentration of 1000 µM. The assay is classed as biochemical. An excerpt:
(§1) Electric eel acetylcholinesterase (AChE, EC 3.1.1.7), equine serum butyrylcholinesterase (BChE, EC 3.1.1.8), 5,5’-dithio-bis-2-nitrobenzoic acid (DTNB), and sodium phosphate dibasic (Na2HPO4) were purchased from Sigma-Aldrich (St. Louis, MO, USA). S-butyrylthiocholine chloride (BTCC) from Sigma-Aldrich (Buchs, Switzerland), acetylthiocholine iodide (ATCI) from Sigma-Aldrich (Dorset, UK) and sodium phosphate monobasic (NaH2PO4) from Sigma-Aldrich (Munich, Germany) were purchased. […] The reagents and solvents for the synthesis work were obtained commercially from Sigma-Aldrich Corporation (St. Louis, MO, USA) and used without any further purification.
(§2) AChE and BChE inhibitory activities of the compounds were determined by Ellman’s assay with minor modifications. […] After a pre-incubation of 15 min at room temperature, 10 µL of 0.50 mM DTNB was added into each well, followed by 10 µL of 0.71 mM acetylthiocholine iodide as the substrate. […] Each test was carried out in triplicate and the results were expressed as an average value. The percentage of inhibition was calculated using the following formula: (1) Percentage of inhibition=S blank -S sample/S blank × 100% where S blank is slope of the blank reaction (without compounds or a reference standard) and S sample is the slope of the sample reaction (with compounds or a reference drug).
(§3) The results of the cholinesterase inhibitory assay were expressed as means ± SD, and were labeled if p < 0.05 using ANOVA of IBM SPSS Statistics for Windows, Version 23.0 (IBM, New York, NY, USA).

Assay [2] concerns the target T2, Electric eel acetylcholinesterase (AChE, EC 3.1.1.7) (Electrophorus electricus, UniProt O42275).
T2 construct: purchased Sigma-Aldrich (St. Louis, MO, USA)
Briefly: biochemical. Particulars: for AChE inhibition effect (in words): 2a, 2r: up to a concentration of 1000 µM. The assay is classed as biochemical.
Text: as §1, §2, §3

Where [3] appears, read: Ellman's assay, pH 8, 15 min pre-incubation, butyrylthiocholine chloride substrate, mean ± SD, triplicate, read-out: BChE IC50.
Setting [4] is: Ellman's assay, pH 8, 15 min pre-incubation, acetylthiocholine iodide substrate, mean ± SD, triplicate, read-out: AChE IC50.

T2 sequence (O42275 24-633): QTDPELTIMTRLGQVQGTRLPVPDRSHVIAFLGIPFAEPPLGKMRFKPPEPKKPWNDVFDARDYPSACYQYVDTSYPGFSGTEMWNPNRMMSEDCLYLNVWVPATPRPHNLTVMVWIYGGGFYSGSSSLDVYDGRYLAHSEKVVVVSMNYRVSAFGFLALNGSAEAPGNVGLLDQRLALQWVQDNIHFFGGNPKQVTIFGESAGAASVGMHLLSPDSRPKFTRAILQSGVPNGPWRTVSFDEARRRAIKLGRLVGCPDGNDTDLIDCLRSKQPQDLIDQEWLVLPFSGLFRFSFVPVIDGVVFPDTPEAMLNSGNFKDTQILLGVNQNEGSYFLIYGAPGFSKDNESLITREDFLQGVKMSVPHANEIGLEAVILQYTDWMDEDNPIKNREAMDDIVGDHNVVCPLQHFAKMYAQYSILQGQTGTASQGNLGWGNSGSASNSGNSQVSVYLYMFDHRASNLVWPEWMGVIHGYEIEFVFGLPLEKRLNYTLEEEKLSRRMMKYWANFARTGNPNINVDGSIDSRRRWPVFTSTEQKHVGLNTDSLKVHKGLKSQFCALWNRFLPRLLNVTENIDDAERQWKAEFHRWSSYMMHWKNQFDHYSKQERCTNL

`O=C(OCC(=O)C12CC3CC(CC(C3)C1)C2)c1ccccc1` [Compound 2a, 2-(Adamantan-1-yl)-2-oxoethyl benzoate]: the “BChE inhibition effect (in words)” value in assay [1] is “low inhibition effects”. For the same compound, the IC50 is above 1500 µM in assay [1] (setting [3]) and 994 ± 19.4 µM in assay [2] (setting [4]). In addition, the “AChE inhibition effect (in words)” value in assay [2] is on record as “low inhibition effects”.

Take `O=C(OCC(=O)C12CC3CC(CC(C3)C1)C2)c1ccccc1Cl` [Compound 2b, 2-(Adamantan-1-yl)-2-oxoethyl 2-chlorobenzoate]: the values for the IC50 in assay [1] (setting [3]) and in assay [2] (setting [4]) were above 1500 µM and 361 ± 30 µM, respectively.

As for `O=C(OCC(=O)C12CC3CC(CC(C3)C1)C2)c1cccc(Cl)c1` [Compound 2c, 2-(Adamantan-1-yl)-2-oxoethyl 3-chlorobenzoate], the IC50 was 971 ± 62.5 µM in assay [1] (setting [3]) and 280 ± 17.4 µM in assay [2] (setting [4]).

Consider `O=C(OCC(=O)C12CC3CC(CC(C3)C1)C2)c1ccc(Cl)cc1` [Compound 2d, 2-(Adamantan-1-yl)-2-oxoethyl 4-chlorobenzoate], for which the IC50 in assay [1] (setting [3]) came out at 1290 ± 30.1 µM; in assay [2] (setting [4]), 341 ± 34.7 µM.

Take `O=C(OCC(=O)C12CC3CC(CC(C3)C1)C2)c1ccc(Cl)cc1Cl` [Compound 2e, 2-(Adamantan-1-yl)-2-oxoethyl 2,4-dichlorobenzoate]: the IC50 came to 307 ± 25.1 µM in assay [1] (setting [3]) and 77.1 ± 7.86 µM in assay [2] (setting [4]).

With `Cc1ccccc1C(=O)OCC(=O)C12CC3CC(CC(C3)C1)C2` [Compound 2f, 2-(Adamantan-1-yl)-2-oxoethyl 2-methylbenzoate], the values for the IC50 in assay [1] (setting [3]) and in assay [2] (setting [4]) were above 1500 µM and 175 ± 25.9 µM, respectively.

For `Cc1cccc(C(=O)OCC(=O)C23CC4CC(CC(C4)C2)C3)c1` [Compound 2g, 2-(Adamantan-1-yl)-2-oxoethyl 3-methylbenzoate], the figures for the IC50 in assay [1] (setting [3]) and in assay [2] (setting [4]) were above 1500 µM and 191 ± 14.4 µM, respectively.

As to `Cc1ccc(C(=O)OCC(=O)C23CC4CC(CC(C4)C2)C3)cc1` [Compound 2h, 2-(Adamantan-1-yl)-2-oxoethyl 4-methylbenzoate], the IC50 in assay [1] (setting [3]) and in assay [2] (setting [4]) was above 1500 µM each time.

Turning to `COc1ccccc1C(=O)OCC(=O)C12CC3CC(CC(C3)C1)C2` [Compound 2i, 2-(Adamantan-1-yl)-2-oxoethyl 2-methoxybenzoate], the IC50 in assay [1] (setting [3]) and in assay [2] (setting [4]) was above 1500 µM throughout.

For the compound `COc1cccc(C(=O)OCC(=O)C23CC4CC(CC(C4)C2)C3)c1` [Compound 2j, 2-(Adamantan-1-yl)-2-oxoethyl 3-methoxybenzoate], the half-maximal inhibitory concentration (IC50) in assay [1] (setting [3]) worked out at 223 ± 17.6 µM; in assay [2] (setting [4]), 166 ± 19.6 µM.

As to `COc1ccc(C(=O)OCC(=O)C23CC4CC(CC(C4)C2)C3)cc1` [Compound 2k, 2-(Adamantan-1-yl)-2-oxoethyl 4-methoxybenzoate], the IC50 in assay [1] (setting [3]) and in assay [2] (setting [4]) was above 1500 µM throughout.

As for `O=C(OCC(=O)C12CC3CC(CC(C3)C1)C2)c1ccccc1[N+](=O)[O-]` [Compound 2l, 2-(Adamantan-1-yl)-2-oxoethyl 2-nitrobenzoate], the IC50 was above 1500 µM in assay [1] (setting [3]) and 689 ± 44.5 µM in assay [2] (setting [4]).

`O=C(OCC(=O)C12CC3CC(CC(C3)C1)C2)c1cccc([N+](=O)[O-])c1` [Compound 2m, 2-(Adamantan-1-yl)-2-oxoethyl 3-nitrobenzoate]: the results for the IC50 in assay [1] (setting [3]) and in assay [2] (setting [4]) were above 1500 µM and 233 ± 25.9 µM, respectively.

On to `O=C(OCC(=O)C12CC3CC(CC(C3)C1)C2)c1ccc([N+](=O)[O-])cc1` [Compound 2n, 2-(Adamantan-1-yl)-2-oxoethyl 4-nitrobenzoate], for which the IC50 in assay [1] (setting [3]) is 777 ± 33.6 µM; in assay [2] (setting [4]), 349 ± 25.2 µM.

For the compound `Nc1ccccc1C(=O)OCC(=O)C12CC3CC(CC(C3)C1)C2` [Compound 2o, 2-(adamantan-1-yl)-2-oxoethyl 2-aminobenzoate], in assay [1], the IC50 is above 1500 µM and the “BChE inhibition effect (in words)” value was “inactive”. Moreover, in assay [2], the IC50 was above 1500 µM and the “AChE inhibition effect (in words)” value is “inactive”.

With `Nc1cccc(C(=O)OCC(=O)C23CC4CC(CC(C4)C2)C3)c1` [Compound 2p, 2-(adamantan-1-yl)-2-oxoethyl 3-aminobenzoate], the “BChE inhibition effect (in words)” value in assay [1] was “inactive”. Moreover, the IC50 in assay [1] (setting [3]) and in assay [2] (setting [4]) was above 1500 µM each time. Further, the “AChE inhibition effect (in words)” value in assay [2] was “inactive”.

`Nc1ccc(C(=O)OCC(=O)C23CC4CC(CC(C4)C2)C3)cc1` [Compound 2q, 2-(adamantan-1-yl)-2-oxoethyl 4-aminobenzoate]: in assay [1], the “BChE inhibition effect (in words)” value was “inactive”. Also, the IC50 in assay [1] (setting [3]) and in assay [2] (setting [4]) was above 1500 µM in each case. Further, the “AChE inhibition effect (in words)” value in assay [2] is “inactive”.

`O=C(OCC(=O)C12CC3CC(CC(C3)C1)C2)c1ccccn1` [Compound 2r, 2-(Adamantan-1-yl)-2-oxoethyl picolinate]: the “BChE inhibition effect (in words)” value in assay [1] is listed as “low inhibition effects”. Moreover, the IC50 in assay [1] (setting [3]) and in assay [2] (setting [4]) was above 1500 µM each time. In assay [2], the “AChE inhibition effect (in words)” value is reported as “low inhibition effects”.
